Structures can show the parent of a compound that is named as a salt.
Key:
[1] = Solubility study of tofacitinib citrate in various solvents (HPLC); type: physicochemical; conditions: for solubility: thermodynamic from solid
Protocol: A solubility study was conducted in the course of formulation development. The suspension was stirred overnight and filtered through 0.22 μm filter. The filtrate was diluted into suitable concentration.

[2] = Compatibility study of dissolved tofacitinib citrate with excipients, 60° C. seven days, HPLC; type: physicochemical; conditions: 1 Week
From the text: The total degradation products in the mixtures were further analyzed by HPLC.

For C[C@@H]1CCN(C(=O)CC#N)C[C@@H]1N(C)c1ncnc2[nH]ccc12 [Tofacitinib Citrate, 3-((3R,4R)-4-methyl-3-[methyl-(7H-pyrrolo[2,3-d]pyrimidin-4-yl)-amino]-piperidin-1-yl)-3-oxopropionitrile], the “Solubility Descriptive Term” value ([1]; 0.1N HCl) was “Sparingly”, the solubility ([1]; 0.1N HCl, simulated gastric fluid) was 23900 µg/mL and the “Solubility Descriptive Term” value ([1]; Dimethyl sulfoxide (DMSO)) was “Freely soluble”. For the same molecule, the “Solubility Descriptive Term” value ([1]; Dimethyl sulfoxide (DMSO), listed as tofacitinib citrate) was “freely soluble”, the “Solubility Descriptive Term” value ([1]; Ethanol) was “Very slightly” and the “Solubility Descriptive Term” value ([1]; Ethanol, listed as tofacitinib citrate) was “very slightly soluble”. For the same molecule, the “Solubility Descriptive Term” value ([1]; H2O) was “Slightly soluble”, the “Solubility Descriptive Term” value ([1]; H2O, listed as tofacitinib citrate) was “slightly soluble” and the “Solubility Descriptive Term” value ([1]; Propylene Glycol (PG)) was “Slightly soluble”. The “Solubility Descriptive Term” value ([1]; Propylene Glycol (PG), listed as tofacitinib citrate) was “slightly soluble”, the solubility ([1]; aqueous buffer, pH 3.0, 50 mM Citrate Buffer) was 600 µg/mL and the solubility ([1]; aqueous buffer, pH 4.5, 50 mM Acetate Buffer) was 1810 µg/mL. For the same molecule, the solubility ([1]; aqueous buffer, pH 6.8, 50 mM Phosphate Buffer) was 120 µg/mL, the solubility ([1]; aqueous buffer, pH 7.5, 50 mM Phosphate Buffer) was 120 µg/mL and the solubility ([1]; aqueous buffer, pH 9.0, 50 mM Phosphate Buffer) was 120 µg/mL. The solubility ([1]; aqueous with cosolvent or surfactant or cyclodextrin, pH 4.5, 50 mM Acetate Buffer/PEG300 = 70/30) was 3160 µg/mL, the solubility ([1]; aqueous with cosolvent or surfactant or cyclodextrin, pH 7.5, 50 mM Phosphate Buffer/PEG300 = 70/30) was 1590 µg/mL and the solubility ([1]; dimethyl sulfoxide (DMSO), organic solvent or mixture) was greater than 100000 µg/mL. The solubility ([1]; ethanol, organic solvent or mixture) was 480 µg/mL, the “Solubility Descriptive Term” value ([1]; pH 3.0, 50 mM Citrate Buffer) was “Very slightly” and the “Solubility Descriptive Term” value ([1]; pH 4.5, 50 mM Acetate Buffer) was “Slightly soluble”. The “Solubility Descriptive Term” value ([1]; pH 4.5, 50 mM Acetate Buffer/PEG300 = 70/30) was “Slightly soluble”, the “Solubility Descriptive Term” value ([1]; pH 6.8, 50 mM Phosphate Buffer) was “Very slightly” and the “Solubility Descriptive Term” value ([1]; pH 7.5, 50 mM Phosphate Buffer) was “Very slightly”. The “Solubility Descriptive Term” value ([1]; pH 7.5, 50 mM Phosphate Buffer/PEG300 = 70/30) was “Slightly soluble”, the “Solubility Descriptive Term” value ([1]; pH 9.0, 50 mM Phosphate Buffer) was “Very slightly” and the solubility ([1]; propylene glycol (PG), organic solvent or mixture) was 1920 µg/mL. The solubility ([1]; water, H2O) was 3000 µg/mL and the “Total Degradation Products” value [2] was 0.06%.

Reference: patent US12161748B2, “Topical formulations comprising tofacitinib” (TWi Biotechnology, Inc., priority 2018, dated 2024)
